# Assay results: publication PMC3692405, “Disease-associated mutations in CNGB3 promote cytotoxicity in photoreceptor-derived cells” (Molecular Vision, 2013)
# Where two headings read alike, the source gives them in different places.
# Columns and labels:
# [1] = biological target: T1, CNGA3 plus CNGB3-F525N channels (Homo sapiens, UniProt Q16281+Q9NQW8, F525N); assay: Inside-out patch-clamp recording of channels expressed in Xenopus oocytes (CNGB3 F525N); format: biochemical
# T1 construct: expressed in transfected cells; host or cells: Xenopus laevis oocytes injected with cRNA transcribed from pGEMHE constructs
# T1 sequence (Q16281 1-694): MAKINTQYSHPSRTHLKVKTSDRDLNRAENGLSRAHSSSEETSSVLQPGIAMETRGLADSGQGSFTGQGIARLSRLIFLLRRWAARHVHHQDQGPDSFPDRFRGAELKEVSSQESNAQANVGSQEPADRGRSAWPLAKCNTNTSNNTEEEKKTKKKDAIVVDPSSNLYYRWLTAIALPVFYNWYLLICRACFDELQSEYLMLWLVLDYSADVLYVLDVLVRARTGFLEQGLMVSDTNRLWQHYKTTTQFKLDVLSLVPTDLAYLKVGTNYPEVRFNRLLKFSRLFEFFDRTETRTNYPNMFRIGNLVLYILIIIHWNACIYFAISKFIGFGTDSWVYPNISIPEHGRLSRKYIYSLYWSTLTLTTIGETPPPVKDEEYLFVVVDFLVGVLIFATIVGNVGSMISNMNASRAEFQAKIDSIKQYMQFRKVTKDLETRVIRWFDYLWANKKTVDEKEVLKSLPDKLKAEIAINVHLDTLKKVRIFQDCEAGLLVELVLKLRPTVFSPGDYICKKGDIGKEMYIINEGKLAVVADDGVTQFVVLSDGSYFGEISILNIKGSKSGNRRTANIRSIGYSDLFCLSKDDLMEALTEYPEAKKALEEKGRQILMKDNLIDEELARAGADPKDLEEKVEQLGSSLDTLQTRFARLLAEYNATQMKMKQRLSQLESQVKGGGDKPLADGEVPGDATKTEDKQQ
# T1 sequence (Q9NQW8 1-809 F525N): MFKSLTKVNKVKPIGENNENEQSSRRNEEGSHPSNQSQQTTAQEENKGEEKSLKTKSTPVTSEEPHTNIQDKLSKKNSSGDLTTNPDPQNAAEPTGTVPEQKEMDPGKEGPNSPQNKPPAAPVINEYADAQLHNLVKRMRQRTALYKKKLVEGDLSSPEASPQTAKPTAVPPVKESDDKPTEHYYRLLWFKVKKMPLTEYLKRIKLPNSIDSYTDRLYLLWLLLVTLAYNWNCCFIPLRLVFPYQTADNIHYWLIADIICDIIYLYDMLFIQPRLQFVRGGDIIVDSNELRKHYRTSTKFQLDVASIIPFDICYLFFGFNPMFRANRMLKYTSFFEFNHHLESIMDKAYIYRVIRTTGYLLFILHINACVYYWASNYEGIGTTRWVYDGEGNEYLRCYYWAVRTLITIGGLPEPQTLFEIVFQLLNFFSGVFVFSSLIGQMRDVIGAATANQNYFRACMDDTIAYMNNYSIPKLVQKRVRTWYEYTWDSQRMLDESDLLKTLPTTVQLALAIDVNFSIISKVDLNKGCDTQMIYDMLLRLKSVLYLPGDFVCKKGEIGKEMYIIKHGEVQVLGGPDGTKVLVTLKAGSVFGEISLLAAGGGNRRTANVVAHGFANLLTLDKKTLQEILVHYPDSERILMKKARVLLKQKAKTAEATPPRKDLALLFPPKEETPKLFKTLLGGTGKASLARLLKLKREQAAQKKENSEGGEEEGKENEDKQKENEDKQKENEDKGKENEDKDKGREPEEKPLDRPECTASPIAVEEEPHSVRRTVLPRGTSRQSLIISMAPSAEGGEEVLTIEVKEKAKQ
# Protocol: (§1) For heterologous expression in Xenopus laevis oocytes, identical amounts of cDNA were linearized using SphI or NheI, and capped cRNA was transcribed in vitro using the T-7 RNA polymerase mMESSAGE mMACHINE® kit (Ambion, Austin, TX). cRNA concentrations and relative amounts were determined by denaturing gel electrophoresis and KODAK 1D image analysis software (Rochester, NY), as well as by spectrophotometry. […] Oocytes were incubated in ND96 (96 mM NaCl, 2 mM KCl, 1.8 mM CaCl2, 1 mM MgCl2, and 5 mM HEPES, pH 7.6, supplemented with 10 μg/ml gentamycin).
# (§2) Two to seven days after microinjection of cRNA, patch-clamp experiments were performed using the inside-out configuration with an Axopatch 200B amplifier (Axon Instruments, Foster City, CA). Recordings were made at 20–23 °C. Data were acquired using Pulse software (HEKA Elektronik, Lambrecht, Germany). Current traces were elicited by voltage steps from a holding potential of 0 mV to +80 mV, then to −80 mV and back to 0 mV. Initial pipette resistances were 0.4–0.8 megaohms. Intracellular and extracellular solutions contained 130 mM NaCl, 0.2 mM EDTA, and 3 mM HEPES (pH 7.2). Intracellular solutions were exchanged using an RSC-160 rapid solution changer (Molecular Kinetics, Indianapolis, IN). Currents in the absence of cyclic nucleotides were subtracted. For channel activation by CPT-cGMP or CPT-cAMP, dose–response data were fitted with the Hill equation, I/Imax=([cNMP]^h/(K1/2^h + [cNMP]^h)), where I is the current amplitude at +80 mV, Imax is the maximum current elicited by saturating concentration of ligand, [cNMP] is the ligand concentration, K1/2 is the apparent ligand affinity, and h is the Hill slope. We measured sensitivity to block by L-cis-diltiazem (RBI, Natick, MA) applied to the intracellular face of the patch in the presence of 0.1 μM CPT-cGMP. Data were fit with a modified Hill equation in the form I blocker/I=(K1/2^h/(K1/2^h + [blocker]^h)). Data were analyzed using Igor (Wavemetrics, Lake Oswego, OR), SigmaPlot, and SigmaStat (Systat Software Inc., San Jose, CA). All values are reported as the mean±standard error of the mean of n experiments unless otherwise indicated. Statistical significance was determined using a Student t test or Mann–Whitney rank sum test, and a p value of <0.05 was considered significant.
# [2] = biological target: T2, CNGA3 plus CNGB3 T383fsX channels (Homo sapiens, UniProt Q16281); assay: Inside-out patch-clamp recording of channels expressed in Xenopus oocytes (CNGB3 T383fsX); format: biochemical
# T2 construct: expressed in transfected cells; host or cells: Xenopus laevis oocytes injected with cRNA transcribed from pGEMHE constructs
# T2 sequence (Q16281 1-694): T1 sequence (Q16281 1-694)
# Protocol: as §1, §2
# [3] = representative patch, Figure 1B
# [4] = representative patch, Figure 5A
Compound,"Hill slope h, CPT-cGMP activation ([1]; +80 mV, Hill fit, mean±SEM)","EC50 ([1]; +80 mV, Hill fit, mean±SEM, read-out: apparent CPT-cGMP affinity K1/2, CPT-cGMP (channel activation))","maximum patch current density (Imax/area) ([1]; +80 mV, saturating CPT-cGMP (4 μM), mean±SEM, n=15)","Hill slope h, CPT-cGMP, representative dose-response [1, 3]","EC50 ([1]; representative patch, Figure 1B, read-out: K1/2,CPT-cGMP, representative dose-response)","Hill slope h, CPT-cGMP activation ([2]; +80 mV, Hill fit, mean±SEM, n=8)","EC50 ([2]; +80 mV, Hill fit, mean±SEM, n=8, read-out: apparent CPT-cGMP affinity K1/2, CPT-cGMP (channel activation))","maximum patch current density (Imax/area) ([2]; +80 mV, saturating CPT-cGMP (4 μM), mean±SEM, n=9)","Hill slope h, CPT-cGMP, representative dose-response [2, 3]","EC50 ([2]; representative patch, Figure 1B, read-out: K1/2, cGMP, representative dose-response for CPT-cGMP activation)","relative agonist efficacy Imax, CPT-cAMP/Imax, CPT-cGMP ([1]; +80 mV, CPT-cAMP 100 μM vs CPT-cGMP 4 μM, mean±SEM, n=15)","Hill slope h, CPT-cAMP activation ([1]; Hill fit, mean±SEM, n=15)","EC50 ([1]; Hill fit, mean±SEM, n=15, read-out: apparent affinity K1/2, CPT-cAMP (channel activation))","Hill slope h, CPT-cAMP, representative dose-response [1, 4]","EC50 ([1]; representative patch, Figure 5A, read-out: K1/2,CPT-cAMP, representative dose-response)","relative agonist efficacy Imax, CPT-cAMP/Imax, CPT-cGMP ([2]; +80 mV, CPT-cAMP 100 μM vs CPT-cGMP 4 μM, mean±SEM, n=8)","Hill slope h, CPT-cAMP activation ([2]; Hill fit, mean±SEM, n=9)","EC50 ([2]; Hill fit, mean±SEM, n=9, read-out: apparent affinity K1/2, CPT-cAMP (channel activation))","Hill slope h, CPT-cAMP, representative dose-response [2, 4]","EC50 ([2]; representative patch, Figure 5A, read-out: K1/2, cAMP, representative dose-response for CPT-cAMP activation)"
"Nc1nc2c(nc(Sc3ccc(Cl)cc3)n2[C@@H]2O[C@@H]3COP(=O)(O)O[C@H]3[C@H]2O)c(=O)[nH]1 [CPT-cGMP, 8-(4-chlorophenylthio) guanosine 3′,5′-cyclic monophosphate]",1.8±0.04,0.0868 ± 0.0106 µM,80.3±18.6 pA/μm^2,1.7,0.079 µM,2.2±0.1,0.105 ± 0.0073 µM,86.6±17.0 pA/μm^2,1.9,0.111 µM,–,–,–,–,–,–,–,–,–,–
"Nc1ncnc2c1nc(Sc1ccc(Cl)cc1)n2[C@@H]1O[C@@H]2COP(=O)(O)O[C@H]2[C@H]1O [CPT-cAMP, CPT-adenosine 3′,5′-cyclic monophosphate]",–,–,–,–,–,–,–,–,–,–,0.49±0.04,1.4±0.08,13.8 ± 1.4 µM,1.0,10.8 µM,0.07±0.01,1.8±0.1,29.8 ± 1.9 µM,1.6,27.9 µM
